Source: ChEMBL document CHEMBL4418913, “Modulation of K2P channels” (2018)
Blank lines part the entries; values can stand above or below the molecule they belong to. Active and inactive are the calls of the source. The calls are words filed in the database; no cut-off is given here.

Columns and labels:
[1] = biological target: T1, Potassium channel subfamily K member 2 (Homo sapiens) (UniProt O95069); test: Activation of K2P2.1 (unknown origin) expressed in Xenopus oocytes assessed as effect on channel currents at 400 uM by two-electrode voltage clamp assay; type: cell-based
T1 sequence (whole entry): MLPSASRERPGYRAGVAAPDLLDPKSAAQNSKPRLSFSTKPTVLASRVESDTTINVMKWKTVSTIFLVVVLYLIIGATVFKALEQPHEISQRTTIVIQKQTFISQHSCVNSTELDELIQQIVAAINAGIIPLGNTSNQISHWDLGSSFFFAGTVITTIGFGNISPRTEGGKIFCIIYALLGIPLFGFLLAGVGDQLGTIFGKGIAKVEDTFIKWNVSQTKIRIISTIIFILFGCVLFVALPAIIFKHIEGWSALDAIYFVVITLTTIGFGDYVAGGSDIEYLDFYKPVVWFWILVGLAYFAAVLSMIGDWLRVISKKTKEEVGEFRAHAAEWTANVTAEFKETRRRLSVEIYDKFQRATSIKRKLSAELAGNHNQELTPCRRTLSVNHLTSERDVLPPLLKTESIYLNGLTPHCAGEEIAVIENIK

[2] = biological target: Potassium voltage-gated channel subfamily KQT member 2 (Homo sapiens) (UniProt O43526); test: Activation of Kv7.2 (unknown origin) expressed in Xenopus oocytes assessed as effect on channel currents by two-electrode voltage clamp assay; type: cell-based
Sequence of Potassium voltage-gated channel subfamily KQT member 2 (Homo sapiens) (O43526 whole entry): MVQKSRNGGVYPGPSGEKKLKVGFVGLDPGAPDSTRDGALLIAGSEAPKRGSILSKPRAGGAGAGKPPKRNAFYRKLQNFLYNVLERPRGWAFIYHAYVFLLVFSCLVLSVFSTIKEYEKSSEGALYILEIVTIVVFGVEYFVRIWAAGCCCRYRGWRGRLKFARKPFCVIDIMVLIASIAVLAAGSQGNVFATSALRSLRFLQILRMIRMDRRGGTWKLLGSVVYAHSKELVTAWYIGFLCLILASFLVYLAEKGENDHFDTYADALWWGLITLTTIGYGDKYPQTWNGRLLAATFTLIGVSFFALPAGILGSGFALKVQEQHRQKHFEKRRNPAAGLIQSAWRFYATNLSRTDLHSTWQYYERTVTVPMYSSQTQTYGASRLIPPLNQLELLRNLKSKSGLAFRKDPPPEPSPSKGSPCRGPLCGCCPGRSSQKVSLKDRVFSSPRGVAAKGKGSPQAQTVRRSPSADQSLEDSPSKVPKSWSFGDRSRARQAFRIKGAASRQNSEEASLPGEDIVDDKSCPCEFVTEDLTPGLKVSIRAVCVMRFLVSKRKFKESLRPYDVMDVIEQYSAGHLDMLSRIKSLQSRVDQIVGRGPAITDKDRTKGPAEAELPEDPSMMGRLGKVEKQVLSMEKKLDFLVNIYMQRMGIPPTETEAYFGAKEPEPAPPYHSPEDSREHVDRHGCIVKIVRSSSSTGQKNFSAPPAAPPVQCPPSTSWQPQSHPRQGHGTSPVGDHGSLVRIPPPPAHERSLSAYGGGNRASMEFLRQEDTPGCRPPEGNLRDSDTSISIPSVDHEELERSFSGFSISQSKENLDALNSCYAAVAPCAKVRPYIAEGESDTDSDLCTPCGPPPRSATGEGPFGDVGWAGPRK

[3] = biological target: T1, Potassium channel subfamily K member 2 (Homo sapiens); test: Reversible modulatory activity at K2P2.1 (unknown origin) expressed in Xenopus oocytes assessed as effect on channel currents at 100 uM at -80 mV holding potential by two-electrode voltage clamp assay; type: cell-based
[4] = biological target: T1, Potassium channel subfamily K member 2 (Homo sapiens); test: Activation of K2P2.1 (unknown origin) expressed in Xenopus oocytes assessed as effect on channel currents at -80 mV holding potential by two-electrode voltage clamp assay relative to untreated control; type: cell-based
[5] = biological target: T1, Potassium channel subfamily K member 2 (Homo sapiens); test: Inhibition of K2P2.1 (unknown origin) expressed in Xenopus oocytes assessed as effect on channel currents at 100 to 500 uM at 40 mV holding potential by two-electrode voltage clamp assay; type: cell-based
[6] = biological target: T2, Potassium channel subfamily K member 4 (Homo sapiens) (UniProt Q9NYG8); test: Binding affinity to K2P4.1 (unknown origin) assessed as induction of protein cross linking and labelling at 1 to 200 uM following 254 nm UV light irradiation for 30 secs by SDS-PAGE analysis
T2 sequence (whole entry): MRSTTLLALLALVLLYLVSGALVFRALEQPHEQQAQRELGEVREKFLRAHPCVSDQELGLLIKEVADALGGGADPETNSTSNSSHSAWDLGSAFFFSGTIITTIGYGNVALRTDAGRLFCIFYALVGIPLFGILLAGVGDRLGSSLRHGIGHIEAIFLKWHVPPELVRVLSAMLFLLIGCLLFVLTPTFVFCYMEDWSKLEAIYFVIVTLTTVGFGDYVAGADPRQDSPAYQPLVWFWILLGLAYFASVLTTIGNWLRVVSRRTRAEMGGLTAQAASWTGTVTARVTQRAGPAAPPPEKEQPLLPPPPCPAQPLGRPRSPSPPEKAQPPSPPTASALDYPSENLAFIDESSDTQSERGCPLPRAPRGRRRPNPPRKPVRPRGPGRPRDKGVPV

[7] = biological target: T1, Potassium channel subfamily K member 2 (Homo sapiens); test: Reversible activation of K2P2.1 (unknown origin) expressed in HEK293T cells assessed as effect on channel currents at 10 uM at -80 mV holding potential by whole cell patch clamp assay relative to untreated control; type: cell-based
[8] = biological target: T1, Potassium channel subfamily K member 2 (Homo sapiens); test: Reversible activation of K2P2.1 (unknown origin) expressed in HEK293T cells assessed as effect on channel currents at 5 to 20 uM by […] assay; type: cell-based
[9] = biological target: T1, Potassium channel subfamily K member 2 (Homo sapiens); test: Reversible activation of K2P2.1 (unknown origin) expressed in Xenopus oocytes assessed as effect on channel currents at 50 uM at -80 mV holding potential by two-electrode voltage clamp assay; type: cell-based
Homo sapiens = species: Homo sapiens; test: Activation of K2P2.1 triple Glycine mutant (unknown origin) expressed in Xenopus oocytes assessed as effect on channel currents at 50 uM by two-electrode voltage clamp assay; type: cell-based
[10] = test system: Potassium channel subfamily K member 2 (Homo sapiens), O95069 [UNDEFINED MUTATION]; test: Activation of K2P2.1 G137I mutant (unknown origin) expressed in Xenopus oocytes assessed as effect on channel currents at 50 uM by two-electrode voltage clamp assay; type: cell-based
[11] = test system: Potassium channel subfamily K member 2 (Homo sapiens), O95069 [UNDEFINED MUTATION]; test: Activation of K2P2.1 W275S mutant (unknown origin) expressed in Xenopus oocytes assessed as effect on channel currents at 50 uM by two-electrode voltage clamp assay; type: cell-based
[12] = biological target: T1, Potassium channel subfamily K member 2 (Homo sapiens); test: Activation of K2P2.1 (unknown origin) expressed in Xenopus oocytes assessed as effect on channel currents at 50 uM in presence of 90 mM [K+]o-induced extracellular C-type gate stabilization by two-electrode voltage clamp assay; type: cell-based
[13] = biological target: T1, Potassium channel subfamily K member 2 (Homo sapiens); test: Activation of K2P2.1 (unknown origin) expressed in HEK293T cells outside out excised patches assessed as effect on channel currents at 20 uM at -40 mV holding potential by […] patch clamp assay relative to untreated control; type: cell-based
[14] = biological target: T1, Potassium channel subfamily K member 2 (Homo sapiens); test: Activation of K2P2.1 (unknown origin) expressed in HEK293T cells inside out excised patches assessed as effect on channel currents at 20 uM at -40 mV holding potential by patch clamp assay relative to untreated control; type: cell-based

Activity [1]: Active
Compound: O=C(O)COc1ccc(C23CC4CC(CC(C4)C2)C3)cc1

Activity [2]: inactive
Activity [3]: Active
Activity [1]: Active
Emax [4]: 11
Compound: O=C(O)CCn1c2ccc(Cl)cc2c2cc(Cl)ccc21

Activity [3]: Active
Compound: Cc1cccc(-n2ncc3c(NCCc4ccccc4)ncnc32)c1

Activity [1]: Active
Compound: O=C1S/C(=C/c2ccc(F)cc2)C(=O)N1CN1CCCCC1

inhibition [5]: Active
Compound: Cc1sc(-n2cccc2)c(C(=O)NCc2ccc(Cl)cc2)c1C

Activity [6]: Active
Compound: C#Cc1ccc(S(=O)(=O)NC(=O)CCN2c3ccc(N=[N+]=[N-])cc3C3(CCCCC3)c3cc(N=[N+]=[N-])ccc32)cc1

Activity [7]: Active
Activity [8]: Active
Activity [9]: Active
Activity [10]: inactive
Activity [11]: inactive
Activity [12]: inactive
Activity [13]: Active
Activity [14]: Active
Compound: CC1(C)c2cc(Cl)ccc2N(CCc2nnn[nH]2)c2ccc(Cl)cc21
Activity (Homo sapiens): inactive
